The source of these data is patent EP0462831B1, “Bicyclic pyran derivatives and their use as inhibitors of 5-lipoxygenase” (ZENECA LIMITED, priority 1990, dated 1991).

Assay [1] deals with T1, 5-LO (Homo sapiens, UniProt P09917).
T1 construct: incubating a test compound with heparinised human blood, prior to challenge with the calcium ionophore A23187; endogenous in cells; host or cells: blood cells in heparinised human whole blood
T1 sequence (P09917 1-674): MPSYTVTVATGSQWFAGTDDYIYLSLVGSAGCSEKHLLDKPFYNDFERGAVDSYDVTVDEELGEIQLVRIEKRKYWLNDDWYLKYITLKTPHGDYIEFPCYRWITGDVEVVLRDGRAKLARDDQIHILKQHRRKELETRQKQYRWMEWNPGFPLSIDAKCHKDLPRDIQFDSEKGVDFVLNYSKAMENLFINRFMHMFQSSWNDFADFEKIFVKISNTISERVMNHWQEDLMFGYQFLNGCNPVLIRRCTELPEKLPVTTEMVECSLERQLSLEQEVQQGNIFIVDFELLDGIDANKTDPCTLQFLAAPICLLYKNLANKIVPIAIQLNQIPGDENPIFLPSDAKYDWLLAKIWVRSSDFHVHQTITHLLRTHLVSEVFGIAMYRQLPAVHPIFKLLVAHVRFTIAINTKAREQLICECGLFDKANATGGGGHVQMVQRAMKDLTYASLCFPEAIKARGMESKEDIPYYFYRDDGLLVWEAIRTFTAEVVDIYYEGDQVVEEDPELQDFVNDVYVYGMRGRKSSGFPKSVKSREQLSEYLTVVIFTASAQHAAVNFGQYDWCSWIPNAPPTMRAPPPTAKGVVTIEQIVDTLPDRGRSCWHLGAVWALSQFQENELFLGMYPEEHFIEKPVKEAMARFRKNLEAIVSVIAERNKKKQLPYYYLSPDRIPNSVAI
In words: Test b): heparinised human blood challenged with calcium ionophore A23187, radioimmunoassay of LTB₄. It is filed as cell-based. The note with it: A23187 challenge, read-out: IC₅₀ (LTB₄). The procedure:
As stated previously, the novel compounds of the formula I are inhibitors of the enzyme 5-LO. […] This test provides a measure of the intrinsic inhibitory properties of a test compound against soluble 5-LO in an extracellular environment. • b) An in vitro assay system involving incubating a test compound with heparinised human blood, prior to challenge with the calcium ionophore A23187 and then indirectly measuring the inhibitory effects on 5-LO by assaying the amount of LTB₄ using specific radioimmunoassays described by Carey and Forder (F. Carey and R.A. Forder, Prostaglandins, Leukotrienes Med., 1986, 22, 57; Prostaglandins, 1984, 28, 666; Brit. J. Pharmacol. 1985, 84, 34P) which involve the use of a protein-LTB₄ conjugate produced using the procedure of Young et alia (Prostaglandins, 1983, 26(4), 605-613). The effects of a test compound on the enzyme cyclooxygenase (which is involved in the alternative metabolic pathway for arachidonic acid and gives rise to prostaglandins, thromboxanes and related metabolites) may be measured at the same time using the specific radioimmunoassay for thromboxane B₂(TxB₂) described by Carey and Forder (see above). This test provides an indication of the effects of a test compound against 5-LO and also cyclooxygenase in the presence of blood cells and proteins. […]

Assay [2] addresses T2, 5-LO (Rattus norvegicus, UniProt P12527).
T2 construct: liberation of LTB₄ induced by zymosan within an air pouch generated within the subcutaneous tissue of the back of male rats; from tissue; host or cells: subcutaneous air pouch of male rats (in vivo)
T2 sequence (P12527 1-673): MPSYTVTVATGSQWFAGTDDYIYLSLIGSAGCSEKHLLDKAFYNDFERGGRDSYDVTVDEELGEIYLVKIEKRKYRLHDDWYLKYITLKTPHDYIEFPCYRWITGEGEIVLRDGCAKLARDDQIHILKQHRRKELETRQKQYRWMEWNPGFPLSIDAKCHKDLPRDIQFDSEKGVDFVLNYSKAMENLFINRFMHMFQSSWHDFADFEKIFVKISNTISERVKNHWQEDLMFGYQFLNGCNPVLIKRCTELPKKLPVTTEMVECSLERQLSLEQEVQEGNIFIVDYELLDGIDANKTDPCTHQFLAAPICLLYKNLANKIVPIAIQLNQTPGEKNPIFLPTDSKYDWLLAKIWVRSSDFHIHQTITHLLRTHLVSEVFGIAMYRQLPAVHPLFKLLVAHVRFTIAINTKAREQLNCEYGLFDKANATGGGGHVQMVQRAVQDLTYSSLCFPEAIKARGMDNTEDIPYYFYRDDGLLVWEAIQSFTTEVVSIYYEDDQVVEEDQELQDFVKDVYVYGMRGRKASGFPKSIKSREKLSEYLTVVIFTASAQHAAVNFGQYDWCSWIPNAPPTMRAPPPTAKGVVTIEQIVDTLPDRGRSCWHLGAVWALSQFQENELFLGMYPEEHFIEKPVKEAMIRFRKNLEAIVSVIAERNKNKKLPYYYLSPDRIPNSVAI
The experiment in a line: Test g): zymosan-induced liberation of LTB₄ in a subcutaneous air pouch. It is filed as in vivo, rats. The note with it: oral, 3 hours, read-out: oral ED₅₀(LTB₄).

Where only a bound is given, the exact number is not on record here.

Consider `COC1(c2cccc(Sc3ccc4c(c3)n(C)c(=O)n4C)c2)CCOCC1` [Example 1, 4-[3-(1,3-dimethyl-2-oxo-2,3-dihydrobenzimidazol-5-ylthio)phenyl]-4-methoxy-tetrahydropyran], for which, at 5-LO [1], the IC50 turned out to be 50 nM. Also, the ED50 on 5-LO [2] is less than 2 mg/kg.
